The values below come from patent publication US11919871B1, “3-(3-chlorophenyl)-5-((2-isopropyl-5- methylphenoxy)methyl)-1,2,4-oxadiazole as an anti-cancer and antimicrobial compound” (KING FAISAL UNIVERSITY, priority 2023, dated 2024).

SMILES strings stand for the structures.

Series [1] has as its system Pseudomonas aeruginosa. Briefly: Agar plate disc-diffusion, antibacterial inhibition zone. It counts as cell-based. The note with it: 37° C., 48 h. The method, then:
(§1) The agar plate disc-diffusion method was applied. […] The discs were then placed onto the surface of agar plates (nutrient agar for bacteria and Sabouraud's dextrose agar for fungi) seeded with the test organism. Each plate contained 15 mL of the agar medium, previously seeded with 0.2 mL of the broth culture of each organism pregrown for 18 hours. The plates were incubated at 37° C. for 48 h, and 72 h for fungi. The inhibition zones were measured in mm. Discs impregnated with DMSO were used as a control, and its inhibition zone was subtracted from the tested compound actual inhibition zone.

Series [2] has as its system Bacillus cereus. The series is described as above. It counts as cell-based. The conditions noted are these: 37° C., 48 h. As to the method: as §1
Series [3] concerns Staphylococcus aureus. The description is as above. It counts as cell-based. The note with it: 37° C., 48 h. The method, then:
as §1

For series [4], the system named is Escherichia coli. The description is as above. In kind it is cell-based. The conditions noted are these: 37° C., 48 h. As to the method:
as §1

In series [5] the test system is Chrysosporium keratinophilum. Briefly: Agar plate disc-diffusion, antifungal inhibition zone. In kind it is cell-based. The note with it: 72 h for fungi. As to the method: (§2) The agar plate disc-diffusion method was applied. Sterilized filter papers (6 mm in diameter) were wetted with 10 μL of a solution of 3-(3-chlorophenyl)-5-((2-isopropyl-5-methylphenoxy)methyl)-1,2,4-oxadiazole (3) to be tested, containing 10 mg/mL in DMSO, and the discs were allowed to air dry. The discs were then placed onto the surface of agar plates (nutrient agar for bacteria and Sabouraud's dextrose agar for fungi) seeded with the test organism. Each plate contained 15 mL of the agar medium, previously seeded with 0.2 mL of the broth culture of each organism pregrown for 18 hours. The plates were incubated at 37° C. for 48 h, and 72 h for fungi. The inhibition zones were measured in mm. Discs impregnated with DMSO were used as a control, and its inhibition zone was subtracted from the tested compound actual inhibition zone.

Series [6] deals with Aspergillus flavus. The series is described as above. It counts as cell-based. The conditions noted are these: 72 h for fungi. The method, then:
as §1

Series [7] deals with different microbes. Briefly: Antimicrobial activity, overall statement (agar plate disc-diffusion). It counts as cell-based. The note with it: against different microbes (bacteria and fungi of Tables 1 and 2). As to the method: as §2
Series [8] concerns human osteosarcoma cells (MG-63). Briefly: Cytotoxicity by SRB assay. In kind it is cell-based. The note with it: MG-63 cells, 0.01 μM to 100 μM for 72 h. From the text:
(§3) The anticancer activity of the described synthesized compounds against highly aggressive androgen-independent metastatic human prostate cancer cells (PC3) and osteosarcoma (MG-63) cells. The human prostate cancer cells (PC3) and human osteosarcoma cells (MG-63) were obtained from Nawah Scientific Inc. (Mokatam, Cairo, Egypt) and cultured in DMEM (Dulbecco's modified eagle's medium), Gibco, USA, supplemented with fetal bovine serum (FBS) at a concentration of 10% and 100 U/mL of penicillin and streptomycin (PS). The Cells were incubated at 37° C. in a humidified environment that contained 5% CO2.
(§4) Cells were seeded in 96-well plates as aliquots of 100 μL cell suspension and incubated in a complete media for 24 h. afterward, cells were treated with 3-(3-chlorophenyl)-5-((2-isopropyl-5-methylphenoxy)methyl)-1,2,4-oxadiazole at diverse concentrations ranging from 0.01 μM to 100 μM for 72 h. Then, cells were fixed at 4° C. for one hour with 150 μL of 10% trichloroacetic acid (TCA). […] Then, 150 μL of Tris pH 10.5 (10 mM) was added, and the absorbance was measured at 540 nm using a BMG LABTECH®-FLUOstar Omega microplate reader (Ortenberg, Germany). Half maximal inhibitory concentrations (IC50) values were calculated for each experiment using GraphPad Prism 6 software. […]
(§5) The inhibition was calculated using the following equation: Inhibition %=100−Average Viability

Series [9] concerns human prostate cancer cells (PC3). Briefly: Cytotoxicity by SRB assay. In kind it is cell-based. The conditions noted are these: 0.01 μM to 100 μM for 72 h.
Excerpt: as §3, §4, §5

[10] abbreviates: A = concentration of comp. = 10,000 μL.
Where [11] appears, read: B = concentration of comp. = 30,000 μL.
The mark [12] stands for this setting: C = concentration of comp. = 50,000 μL.

Take `O=C(O)c1cn(C2CC2)c2cc(N3CCNCC3)c(F)cc2c1=O` [Cip., ciprofloxacin, reference compound]: the inhibition zone was determined as 29 mm in series [1] (setting [10]); 30 mm in series [1] (setting [11]); 53 mm in [1] (setting [12]); 29 mm in [2] (setting [10]); 30 mm in [2] (setting [11]); 42 mm in [2] (setting [12]). The inhibition zone amounted to 43 mm in series [3] (setting [10]); 44 mm in series [3] (setting [11]); 53 mm in series [3] (setting [12]); 30 mm in series [4] (setting [10]); 39 mm in series [4] (setting [11]); 60 mm in series [4] (setting [12]). Moreover, the inhibition zone in series [5] (setting [10]) is on record as 29 mm; in series [5] (setting [11]), 30 mm; in [5] (setting [12]), 53 mm; in [6] (setting [10]), 29 mm; in series [6] (setting [11]) it was 30 mm; in [6] (setting [12]), 42 mm.

The molecule `Cc1ccc(C(C)C)c(OCc2nc(-c3cccc(Cl)c3)no2)c1` [Compound 3, 3-(3-chlorophenyl)-5-((2-isopropyl-5-methylphenoxy)methyl)-1,2,4-oxadiazole] came in with a melting point of 151 to 153 °C. Further, the antimicrobial activities entry in series [7] was “excellent antimicrobial activities”. This molecule yielded an inhibition zone in series [1] (setting [10]) of 24 mm. For the same molecule, in series [1] (setting [11]), the inhibition zone is 28 mm. In series [1] (setting [12]), this molecule gave an inhibition zone of 38 mm. Also, in [2] (setting [10]), the inhibition zone is on record as 30 mm. The inhibition zone in series [2] (setting [11]) worked out at 31 mm. This molecule had an inhibition zone in series [2] (setting [12]) of 39 mm. In addition, the inhibition zone in series [3] (setting [10]) was determined as 13 mm. The same molecule came in with an inhibition zone in [3] (setting [11]) of 17 mm. In series [3] (setting [12]), this molecule returned an inhibition zone of 20 mm. In [4] (setting [10]), the inhibition zone was determined as 24 mm. The same molecule showed an inhibition zone in [4] (setting [11]) of 35 mm. The molecule further returned an inhibition zone in series [4] (setting [12]) of 50 mm. Further, the inhibition zone in series [5] (setting [10]) is listed as 27 mm. The molecule also gave an inhibition zone in series [5] (setting [11]) of 29 mm. Moreover, the inhibition zone in [5] (setting [12]) came to 48 mm. For the same molecule, in [6] (setting [10]), the inhibition zone was found to be 18 mm. The inhibition zone in series [6] (setting [11]) stood at 20 mm. Besides, the inhibition zone in series [6] (setting [12]) stood at 29 mm.

Take `Cc1ccc(C(C)C)c(OCc2nc(-c3cccc(Cl)c3)no2)c1` [3-(3-chlorophenyl)-5-((2-isopropyl-5-methylphenoxy)methyl)-1,2,4-oxadiazole]: the antiproliferative activities entry in series [8] and in [9] was “excellent antiproliferative activities” each time.
